Where only a bound is given, the exact number is not on record here.

The record followed here is US7888464B2, “Hepatitis C virus inhibitors” (Bristol-Myers Squibb Company, priority 2006, dated 2011).

What all share (format): biochemical
The target in experiment [1] is T1, HCV NS3/4A protease complex, BMS strain (genotype 1a) (UniProt P27958, species not given/STRAIN_BMS).
T1 construct: "DNA encoding the recombinant HCV NS3/4A protease complex (amino acids 1027 to 1711) for these strains" (said of H77 and J4L6S, not expressly of BMS); given for the H77/J4L6S constructs only
Description: FRET peptide assay to monitor HCV NS3/4A proteolytic activity (BMS strain). Conditions: BMS strain; read-out: IC50 against the NS3/4A BMS strain in the enzyme assay. From the text: HCV NS3 protease complexes, derived from the BMS strain, H77 strain or J4L6S strain, were generated, as described below. These purified recombinant proteins were generated for use in a homogeneous assay (see below) to provide an indication of how effective compounds of the present disclosure would be in inhibiting HCV NS3 proteolytic activity.
Serum from an HCV-infected patient was obtained from Dr. T. Wright, San Francisco Hospital. An engineered full-length cDNA (compliment deoxyribonucleic acid) template of the HCV genome (BMS strain) was constructed from DNA fragments obtained by reverse transcription-PCR(RT-PCR) of serum RNA (ribonucleic acid) and using primers selected on the basis of homology between other genotype la strains. From the determination of the entire genome sequence, a genotype la was assigned to the HCV isolate according to the classification of Simmonds et al. (See P Simmonds, K A Rose, S Graham, S W Chan, F McOmish, B C Dow, E A Follett, P L Yap and H Marsden, J. Clin. Microbiol., 31(6), 1493-1503 (1993)). […] The infectious clones, H77 (1a genotype) and J4L6S (1b genotype) were obtained from R. Purcell (NIH) and the sequences are published in Genbank (AAB67036, see Yanagi, M., Purcell, R. H., Emerson, S. U. and Bukh, J. Proc. Natl. Acad. Sci. U.S.A. 94(16), 8738-8743 (1997); AF054247, see Yanagi, M., St Claire, M., Shapiro, M., Emerson, S. U., Purcell, R. H. and Bukh, J, Virology 244 (1), 161-172. (1998)).
The H77 and J4L6S strains were used for production of recombinant NS3/4A protease complexes. DNA encoding the recombinant HCV NS3/4A protease complex (amino acids 1027 to 1711) for these strains were manipulated as described by P. Gallinari et al. (see Gallinari P, Paolini C, Brennan D, Nardi C, Steinkuhler C, De Francesco R. Biochemistry. 38(17):5620-32, (1999)). Briefly, a three-lysine solubilizing tail was added at the 3′-end of the NS4A coding region. The cysteine in the P1 position of the NS4A-NS4B cleavage site (amino acid 1711) was changed to a glycine to avoid the proteolytic cleavage of the lysine tag. Furthermore, a cysteine to serine mutation was introduced by PCR at amino acid position 1454 to prevent the autolytic cleavage in the NS3 helicase domain. The variant DNA fragment was cloned in the pET21b bacterial expression vector (Novagen) and the NS3/4A complex was expressed in Escherichia. coli strain BL21 (DE3) (Invitrogen) following the protocol described by P. Gallinari et al. (see Gallinari P, Brennan D, Nardi C, Brunetti M, Tomei L, Steinkuhler C, De Francesco R., J. Virol. 72(8):6758-69 (1998)) with modifications. Briefly, the NS3/4A protease complex expression was induced with 0.5 millimolar (mM) Isopropyl β-D-1-thiogalactopyranoside (IPTG) for 22 hours (h) at 20° C. A typical fermentation (1 Liter (L)) yielded approximately 10 grams (g) of wet cell paste. The cells were resuspended in lysis buffer (10 mL/g) consisting of 25 mM N-(2-Hydroxyethyl)piperazine-N′-(2-Ethane Sulfonic acid) (HEPES), pH 7.5, 20% glycerol, 500 mM Sodium Chloride (NaCl), 0.5% Triton X-100, 1 microgram/milliliter (“μg/mL”) lysozyme, 5 mM Magnesium Chloride (MgCl2), 1 μg/ml DnaseI, 5 mM β-Mercaptoethanol (βME), Protease inhibitor-Ethylenediamine Tetraacetic acid (EDTA) free (Roche), homogenized and incubated for 20 minutes (min) at 4° C. The homogenate was sonicated and clarified by ultra-centrifugation at 235000 g for 1 hour (h) at 4° C. Imidazole was added to the supernatant to a final concentration of 15 mM and the pH adjusted to 8.0. The crude protein extract was loaded on a Nickel-Nitrilotriacetic acid (Ni-NTA) column pre-equilibrated with buffer B (25 mM HEPES, pH 8.0, 20% glycerol, 500 mM NaCl, 0.5% Triton X-100, 15 mM imidazole, 5 mM βME). The sample was loaded at a flow rate of 1 mL/min. The column was washed with 15 column volumes of buffer C (same as buffer B except with 0.2% Triton X-100). The protein was eluted with 5 column volumes of buffer D (same as buffer C except with 200 mM Imidazole). […]

In experiment [2] the test system is human pancreatic chymotrypsin. Description: Specificity assay, chymotrypsin. Conditions: read-out: Chymotrypsin activity in the specificity assays. How it is done:
(§1) The specificities of compounds of the present disclosure were determined against a variety of serine proteases: human neutrophil elastase (HNE), porcine pancreatic elastase (PPE) and human pancreatic chymotrypsin and one cysteine protease: human liver cathepsin B. In all cases a 96-well plate format protocol using a fluorometric Amino-Methyl-Coumarin (AMC) substrate specific for each enzyme was used as described previously (PCT Patent Application No. WO 00/09543) with some modifications to the serine protease assays. All enzymes were purchased from Sigma, EMDbiosciences while the substrates were from Bachem, Sigma and EMDbiosciences.
(§2) Compound concentrations varied from 100 to 0.4 μM depending on their potency. The enzyme assays were each initiated by addition of substrate to enzyme-inhibitor pre-incubated for 10 min at room temperature and hydrolysis to 15% conversion as measured on cytofluor.
50 mM Tris(hydroxymethyl)aminomethane hydrochloride (Tris-HCl) pH 8, 0.5 M Sodium Sulfate (Na2SO4), 50 mM NaCl, 0.1 mM EDTA, 3% DMSO, 0.01% Tween-20 with 5 μM LLVY-AMC and 1 nM Chymotrypsin.
(§3) The percentage of inhibition was calculated using the formula: [1−((UVinh−UVblank)/(UVctl−UVblank))]×100
(§4) A non-linear curve fit was applied to the inhibition-concentration data, and the 50% effective concentration (IC50) was calculated by the use of Excel XLfit software.

Experiment [3] addresses T2, human liver cathepsin B (Homo sapiens, UniProt P07858).
T2 construct: purchased Sigma, EMDbiosciences; host or cells: human liver
The experiment is described as follows: Specificity assay, cathepsin B. The following applies: read-out: Cathepsin B activity in the specificity assays. How it is done:
as §1, §2
100 mM NaOAC (Sodium Acetate) pH 5.5, 3% DMSO, 1 mM TCEP (Tris(2-carboxyethyl)phosphine hydrochloride), 5 nM Cathepsin B (enzyme stock activated in buffer containing 20 mM TCEP before use), and 2 μM Z-FR-AMC diluted in H2O.
as §3, §4

T1 sequence (P27958 1027-1657, stated change not applied, one chain of several): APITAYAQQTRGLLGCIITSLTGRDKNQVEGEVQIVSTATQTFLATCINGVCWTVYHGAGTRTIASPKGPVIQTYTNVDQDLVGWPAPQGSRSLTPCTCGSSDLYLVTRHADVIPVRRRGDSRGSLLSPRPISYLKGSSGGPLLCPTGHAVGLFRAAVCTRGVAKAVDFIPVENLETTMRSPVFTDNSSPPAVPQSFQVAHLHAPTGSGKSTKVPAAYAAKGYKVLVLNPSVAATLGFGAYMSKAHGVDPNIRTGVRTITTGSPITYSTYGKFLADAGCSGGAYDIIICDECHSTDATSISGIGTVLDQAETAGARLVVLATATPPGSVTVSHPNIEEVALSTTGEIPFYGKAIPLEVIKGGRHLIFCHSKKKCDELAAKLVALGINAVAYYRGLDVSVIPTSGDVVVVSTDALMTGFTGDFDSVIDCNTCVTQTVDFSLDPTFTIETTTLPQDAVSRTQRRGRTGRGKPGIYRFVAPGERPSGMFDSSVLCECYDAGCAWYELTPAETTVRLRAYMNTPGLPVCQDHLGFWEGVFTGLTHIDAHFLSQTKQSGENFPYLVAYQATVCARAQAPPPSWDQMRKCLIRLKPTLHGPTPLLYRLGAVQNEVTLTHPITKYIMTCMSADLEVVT

As to `C=C[C@@H]1C[C@]1(NC(=O)[C@@H]1C[C@@](O)(c2ccc(-c3ccccc3)cc2)CN1C(=O)[C@@H](NC(=O)OC(C)(C)C)C(C)(C)C)C(=O)NS(=O)(=O)C1CC1` [Compound 3], the IC50 in experiment [1] was 0.0044 µM; in experiment [2] it was 75 µM; in experiment [3], over 100 µM.
